In patent publication US20160222021A1, “ARYL ETHER-BASE KINASE INHIBITORS” (BRISTOL-MYERS SQUIBB COMPANY, priority 2013, published 2016):

What was measured:
[1] = target: AAK1 (full length human) in HEK293F cells (Homo sapiens, UniProt Q2M2I8); assay: HEK293F Cell-Based Assay (phospho-mu2 Western blot); conditions: 3 hours, IC50 ranges
Description: HEK293F cells were cultured in media containing DMEM (Gibco, cat. #11965), 10% FBS (SAFC Biosciences, cat. #12103C), 1×GPS (glutamine, penicillin and streptomycin). On day one, cells were plated on a 10 cm dish so that they are ˜80% confluent at time of transfection. Roughly 12 million cells were in a 10 cm dish at time of transfection. On day two, each dish was transfected with 48 ug DNA and 144 ul Lipofectamine 2000 (Invitrogen, cat. #11668-019). The DNA was comprised of a mixture (per 10 cm dish) containing 3 ug AAK1/HA/pIRES (full length human, NCBI accession no. NP_055726.2), 45 μg Flag/AP2MI/pcDNA (full length human), and 1.5 ml OPTI-MEM. The Lipofectamine 2000 is made up of a mixture (per 10 cm dish) containing 144 μl Lipofectamine 2000 and 1.5 ml OPTI-MEM. Each mixture was transferred to individual 15 ml tubes and incubated at RT for 5 minutes, and then the two mixes were combined and incubated at RT for 20 minutes. Growth media was then aspirated from each 10 cm plate and replaced with 10 ml of DMEM+10% FBS (no GPS). Finally, 3 ml DNA/Lipofectamine mix was added to each 10 cm dish and mix gently followed by incubate of plate overnight at 37° C. and 5% CO2.
On day three, compounds were diluted in 100% DMSO at 1000× final concentration, followed by 3-fold serial dilutions for a total of 5 concentrations tested. Four compounds were tested per 10 cm dish. One ul of each compound dilution was then pipetted into a deep-well, 96-well plate, followed by addition of 500 μl DMEM+0.5% FBS into each well for a 2× final concentration of each compound. Cells were resuspended in a 10 cm dish by simple pipetting (HEK293 cells come off the plate that easy at this point) and then transferred to a 50 ml conical tube and pelleted by centrifugation at 1000 rpm for 5 min. Cell pellets were then resuspended in 2.75 ml DMEM+0.5% FBS per 10 cm dish and 100 μl of cell suspension transferred into each well of 96-well TC plate. Finally, 100 μl of 2× compound diluted in DMEM+0.5% FBS was then added into wells containing cell suspension for a 1× final concentration. Plates were then incubated at 37° C. and 5% CO2 for 3 hours followed by transferring of cell suspensions from each well into 12-tube PCR strips. The PCR strips were spun in a tip rack at 1000 rpm for 5 minutes to pellet cells and media was then removed by pipetting without disturbing the cell pellet.
To prepare for Western Blot analysis, cell pellets were resuspend in 40 ul 1× LDS-PAGE sample buffer (Invitrogen, cat. # NP0008)+2× Halt phophatase and protease inhibitor cocktail (Thermo Scientific, cat. #1861284), followed by sonicating each with microtip sonicator set at 5 for 8-10 seconds. Five ul of 10× NuPage Sample Reducing Agent (with 50 mM DTT) was to each sample followed by heat denaturing at 70 C for 10 min on PCR machine. A total of 10 μl per sample was loaded into each lane of a 4-20% Tris-Glycine Criterion 26-well gel (Biorad, cat. #345-0034) for the phospho-mu2 blot and 10 μl per lane in a 4-12% Bis-Tris (+MES buffer) NuPAGE 26-well gel (Invitrogen, cat. # WG1403BX10) for the mu2 blot. For controls, 2 ng of phospho-mu2 or 20 ng mu2/Flag proteins were loaded in the last well of each gel. After SDS-PAGE, samples on each gel were transferred to PVDF membrane using an iBlot and membranes were blocked for one hour in TBST+5% milk, followed by wash 3× for 5-10 min with TBST. Criterion gels were probed with rabbit anti-phospho-mu2 (1:5000; a rabbit polyclonal antibody produced by New England Peptide and affinity purified at Lexicon) in TBST+5% BSA, whereas, NuPAGE gels were probed with mouse anti-Flag (1:500; Sigma, cat. # F1804) in TBST+5% milk, and these primary antibodies were incubated overnight at 4° C. on a rocker. […]

[2] = target: T1, GST-Xa-hAAK1 (Homo sapiens, UniProt Q2M2I8); assay: AAK1 Kinase Assay; type: biochemical; conditions: ATP 22 μM
T1 construct: made in house
Description: The assays were performed in U-bottom 384-well plates. The final assay volume was 30 μl prepared from 15 μl additions of enzyme and substrates (fluoresceinated peptide (5-FAM)-Aha-[…]-NH2 and ATP) and test compounds in assay buffer (10 mM Tris-HCL pH 7.4, 10 mM MgCl2, 0.01% Tween-20 and 1.0 mM DTT). The reactions were initiated by the combination of bacterially expressed, GST-Xa-hAAK1 with substrates and test compounds. The reactions were incubated at room temperature for 3 hours and terminated by adding 60 μl of 35 mM EDTA buffer to each sample. The reactions were analyzed on the Caliper LabChip 3000 (Caliper, Hopkinton, Mass.) by electrophoretic separation of the fluorescent substrate and phosphorylated product. […] The final concentration of reagents in the assays are ATP, 22 μM; (5-FAM)-Aha-[…]-NH2, 1.5 μM; GST-Xa-hAAK1, 3.5 nM; and DMSO, 1.6%. Dose response curves were generated to determine the concentration required inhibiting 50% of kinase activity (IC50). Compounds were dissolved at 10 mM in dimethylsulfoxide (DMSO) and evaluated at eleven concentrations. IC50 values were derived by non-linear regression analysis.

Sequence of AAK1 (full length human) in HEK293F cells (Q2M2I8 1-822 limits assumed): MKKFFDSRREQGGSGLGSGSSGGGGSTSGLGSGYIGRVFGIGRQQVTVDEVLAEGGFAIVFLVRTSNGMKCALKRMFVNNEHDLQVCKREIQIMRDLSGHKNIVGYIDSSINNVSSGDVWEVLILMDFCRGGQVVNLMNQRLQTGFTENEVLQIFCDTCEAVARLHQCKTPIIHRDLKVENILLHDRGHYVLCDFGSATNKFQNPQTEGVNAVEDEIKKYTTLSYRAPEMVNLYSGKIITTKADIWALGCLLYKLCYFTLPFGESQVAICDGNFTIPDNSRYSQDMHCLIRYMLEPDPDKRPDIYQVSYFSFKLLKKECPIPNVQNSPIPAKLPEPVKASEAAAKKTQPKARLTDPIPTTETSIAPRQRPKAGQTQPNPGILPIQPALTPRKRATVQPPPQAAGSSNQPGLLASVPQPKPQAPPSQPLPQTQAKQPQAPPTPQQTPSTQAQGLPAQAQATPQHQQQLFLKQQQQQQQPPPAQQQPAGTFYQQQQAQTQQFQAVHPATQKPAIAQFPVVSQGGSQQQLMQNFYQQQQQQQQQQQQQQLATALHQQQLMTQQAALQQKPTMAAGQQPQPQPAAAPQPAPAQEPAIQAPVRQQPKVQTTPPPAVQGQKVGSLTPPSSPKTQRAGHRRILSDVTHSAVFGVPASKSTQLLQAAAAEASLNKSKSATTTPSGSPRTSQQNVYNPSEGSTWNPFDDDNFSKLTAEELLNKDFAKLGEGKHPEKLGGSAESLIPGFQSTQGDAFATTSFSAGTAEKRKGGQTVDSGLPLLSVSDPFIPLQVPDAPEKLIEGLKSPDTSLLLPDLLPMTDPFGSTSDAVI
T1 sequence (Q2M2I8 whole entry): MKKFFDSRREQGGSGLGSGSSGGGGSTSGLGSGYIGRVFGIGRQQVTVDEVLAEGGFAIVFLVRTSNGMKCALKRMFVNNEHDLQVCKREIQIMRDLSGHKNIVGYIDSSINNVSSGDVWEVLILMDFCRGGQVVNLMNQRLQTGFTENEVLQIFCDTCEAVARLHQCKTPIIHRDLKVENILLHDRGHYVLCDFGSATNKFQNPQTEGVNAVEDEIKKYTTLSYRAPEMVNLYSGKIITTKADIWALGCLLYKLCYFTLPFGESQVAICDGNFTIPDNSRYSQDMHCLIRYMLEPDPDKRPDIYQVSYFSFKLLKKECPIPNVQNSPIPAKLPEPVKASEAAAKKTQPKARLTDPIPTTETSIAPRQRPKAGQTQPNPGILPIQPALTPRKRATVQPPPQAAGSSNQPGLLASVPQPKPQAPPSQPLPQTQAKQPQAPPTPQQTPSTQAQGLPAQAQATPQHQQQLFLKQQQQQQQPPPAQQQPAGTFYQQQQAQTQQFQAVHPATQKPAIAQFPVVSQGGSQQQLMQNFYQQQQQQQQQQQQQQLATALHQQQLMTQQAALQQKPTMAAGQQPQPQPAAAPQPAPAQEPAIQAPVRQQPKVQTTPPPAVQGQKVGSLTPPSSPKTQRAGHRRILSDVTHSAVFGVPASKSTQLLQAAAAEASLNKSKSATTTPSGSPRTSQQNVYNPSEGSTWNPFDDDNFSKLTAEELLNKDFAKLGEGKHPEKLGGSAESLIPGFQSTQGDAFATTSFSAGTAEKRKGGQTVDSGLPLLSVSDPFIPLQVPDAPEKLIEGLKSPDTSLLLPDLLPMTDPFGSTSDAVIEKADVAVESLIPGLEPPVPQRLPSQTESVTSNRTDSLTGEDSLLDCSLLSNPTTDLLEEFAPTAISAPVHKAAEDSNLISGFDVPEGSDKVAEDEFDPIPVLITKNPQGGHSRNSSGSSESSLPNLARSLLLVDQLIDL

Structure (SMILES) | IC50 [1] [nM] | IC50 ([2]; IC50 ranges) [nM] | IC50 ([2]; numeric values) [nM]
COC(=O)Nc1cc2c(cn1)COc1cc(OCC(C)(N)CC(C)C)ccc1-2 (racemic) [Example 60, methyl (8-((2-amino-2,4-dimethylpentyl)oxy)-5H-chromeno[3,4-c]pyridin-2-yl)carbamate] | 1 to 10 | 1 to 10 | –
CC(C)C[C@H](N)COc1cc2c(cc1Cl)-c1ccncc1[C@@H](C(F)(F)F)O2 (single isomer, unassigned) [Example 27b] | 1 to 10 | 1 to 10 | –
CC(C)C[C@H](N)COc1ccc2c(c1)OC(C(F)(F)F)c1cnccc1-2 (single isomer, unassigned; diastereomer 1) [Example 52] | 10 to 100 | 10 to 100 | –
CC1Oc2cc(OCC(N)CC(C)(C)F)ccc2-c2ccncc21 (stereo not shown) [Example 26, 4-fluoro-4-methyl-1-(5-methyl-5H-chromeno[3,4-c]pyridin-8-yloxy)pentan-2-amine] | 10 to 100 | 1 to 10 | –
CC1Oc2cc(OCC(N)CCC(F)(F)F)ccc2-c2ccncc21 (stereo not shown) [Example 57, 5,5,5-trifluoro-1-((5-methyl-5H-chromeno[3,4-c]pyridin-8-yl)oxy)pentan-2-amine] | 10 to 100 | 1 to 10 | –
COC(=O)Nc1cc2c(cn1)COc1cc(OCC(C)(N)CC(C)C)ccc1-2 (stereo not shown) [Example 70, methyl (8-((2-amino-2,4-dimethylpentyl)oxy)-5H-chromeno[3,4-c]pyridin-2-yl)carbamate] | 1 to 10 | – | –
CC(C)C[C@](C)(N)COc1ccc2c(c1)OCc1cnc(N)cc1-2 [Example 90, (S)-8-((2-amino-2,4-dimethylpentyl)oxy)-5H-chromeno[3,4-c]pyridin-2-amine] | – | 1 to 10 | –
COC(=O)Nc1cc2c(cn1)COc1cc(OC[C@@](C)(N)CC(C)C)c(F)cc1-2 [Example 95, (S)-methyl (8-((2-amino-2,4-dimethylpentyl)oxy)-9-fluoro-5H-chromeno[3,4-c]pyridin-2-yl)carbamate] | – | – | 2.1
[2H]C1([2H])Oc2cc(OC[C@@](C)(N)CC(C)C)ccc2-c2cc(NC(=O)OC)ncc21 [Example 97, (S)-methyl (8-((2-amino-2,4-dimethylpentyl)oxy)-5,5-deutero-5H-chromeno[3,4-c]pyridin-2-yl)carbamate] | – | 1 to 10 | –
CC(C)C[C@](C)(N)COc1cc(F)c2c(c1)OCc1cnc(N)cc1-2 [Example 99, (S)-8-((2-amino-2,4-dimethylpentyl)oxy)-10-fluoro-5H-chromeno[3,4-c]pyridin-2-amine] | – | 1 to 10 | –
Cc1cc2c(cn1)c(=O)oc1cc(OC[C@@](C)(N)CC(C)C)ccc12 [Example 102, (S)-8-((2-amino-2,4-dimethylpentyl)oxy)-2-methyl-5H-chromeno[3,4-c]pyridin-5-one] | – | – | 556
Cc1cc2c(cn1)c(=O)oc1cc(OC[C@@](C)(N)CC(C)C)c(Cl)cc12 [Example 103, (S)-8-((2-amino-2,4-dimethylpentyl)oxy)-9-chloro-2-methyl-5H-chromeno[3,4-c]pyridin-5-one] | – | 100 to 1200 | –

Results, then the compound that gave them:

IC50 [1] [nM] | IC50 ([2]; IC50 ranges) [nM] | IC50 ([2]; numeric values) [nM] | Structure (SMILES)
< 1 | < 1 | – | CC(=O)Nc1cc2c(cn1)COc1c-2ccc(OCC(C)(N)CC(C)C)c1OC(F)F (racemic) [Example 65, N-(8-((2-amino-2,4-dimethylpentyl)oxy)-7-(difluoromethoxy)-5H-chromeno[3,4-c]pyridin-2-yl)acetamide]
1 to 10 | < 1 | – | COc1c(OCC(C)(N)CC(C)C)ccc2c1OCc1cnc(NC(C)=O)cc1-2 (racemic) [Example 66, N-(8-((2-amino-2,4-dimethylpentyl)oxy)-7-methoxy-5H-chromeno[3,4-c]pyridin-2-yl)acetamide]
1 to 10 | < 1 | – | COC(=O)Nc1cc2c(cn1)COc1c-2ccc(OCC(C)(N)CC(C)C)c1OC(F)F (racemic) [Example 76, methyl (8-((2-amino-2,4-dimethylpentyl)oxy)-7-(difluoromethoxy)-5H-chromeno[3,4-c]pyridin-2-yl)carbamate]
1 to 10 | 1 to 10 | – | CC(=O)Nc1cc2c(cn1)COc1cc(OC[C@](C)(N)CC(C)C)ccc1-2 [Example 46, (R)—N-(8-((2-amino-2,4-dimethylpentyl)oxy)-5H-chromeno[3,4-c]pyridin-2-yl)acetamide]
< 1 | 1 to 10 | – | CC(=O)Nc1cc2c(cn1)COc1c-2ccc(OC[C@@H](N)CC(C)C)c1OC(F)F [Example 59, (S)—N-(8-((2-amino-4-methylpentyl)oxy)-7-(difluoromethoxy)-5H-chromeno[3,4-c]pyridin-2-yl)acetamide]
– | < 1 | – | COC(=O)Nc1cc2c(cn1)COc1c-2ccc(OC[C@@](C)(N)CC(C)C)c1OC(F)F [Example 89, (S)-methyl (8-((2-amino-2,4-dimethylpentyl)oxy)-7-(difluoromethoxy)-5H-chromeno[3,4-c]pyridin-2-yl)carbamate]
– | < 1 | – | CC(=O)Nc1cc2c(cn1)COc1c-2ccc(OC[C@@](C)(N)CC(C)C)c1Cl [Example 91, (S)—N-(8-((2-amino-2,4-dimethylpentyl)oxy)-7-chloro-5H-chromeno[3,4-c]pyridin-2-yl)acetamide]
– | 1 to 10 | – | COC(=O)Nc1cc2c(cn1)COc1c-2ccc(OC[C@@](C)(N)CC(C)C)c1Cl [Example 92, (S)-methyl (8-((2-amino-2,4-dimethylpentyl)oxy)-7-chloro-5H-chromeno[3,4-c]pyridin-2-yl)carbamate]
– | – | 0.89 | CCOC(=O)Nc1cc2c(cn1)COc1c-2ccc(OC[C@@](C)(N)CC(C)C)c1Cl [Example 93, (S)-ethyl (8-((2-amino-2,4-dimethylpentyl)oxy)-7-chloro-5H-chromeno[3,4-c]pyridin-2-yl)carbamate]
– | 1 to 10 | – | CC(=O)Nc1cc2c(cn1)COc1cc(OC[C@@](C)(N)CC(C)C)cc(F)c1-2 [Example 98, (S)—N-(8-((2-amino-2,4-dimethylpentyl)oxy)-10-fluoro-5H-chromeno[3,4-c]pyridin-2-yl)acetamide]
– | 100 to 1200 | – | CC(=O)Nc1cc2c(cn1)COc1cc(OC[C@H](CC(C)C)NC(C)=O)ccc1-2 [Example 100, (S)—N-(8-((2-acetamido-4-methylpentyl)oxy)-5H-chromeno[3,4-c]pyridin-2-yl)acetamide]
– | 10 to 100 | – | CC(=O)Nc1cc2c(cn1)COc1cc(OC[C@H](CC(C)C)NS(C)(=O)=O)ccc1-2 [Example 101, (S)—N-(8-((4-methyl-2-(methylsulfonamido)pentyl)oxy)-5H-chromeno[3,4-c]pyridin-2-yl)acetamide]
